The source made the active and inactive calls. The calls are words filed in the database; no cut-off is given here.
Assays:
HT-1080 [1] = experiment: Induction of ferroptosis in human HT-1080 cells assessed as accumulation of lipid peroxidation at 10 uM after 6 hrs by BODIPYTM 581/591C11 probe based flow cytometry assay; type: functional, cell-based
[2] = Cytotoxicity against human HPNE cells; type: toxicity, cell-based
[3] = Selectivity index, ratio of IC50 for human HPNE cells to IC50 for human HT-1080 cells
HT-1080 [4] = experiment: Induction of ferroptosis in human HT-1080 cells assessed as accumulation of lipid peroxidation at 1 to 4 uM after 12 hrs by BODIPYTM 581/591C11 probe based flow cytometry assay; type: functional, cell-based; conditions: dose 1-4 µM
HT-1080 [5] = experiment: Induction of ferroptosis in human HT-1080 cells assessed as appearance of ruptured mitochondria at 4 uM after 24 hrs by transmission electron microscope analysis; type: functional, cell-based
HT-1080 [6] = experiment: Cytotoxicity against human HT-1080 cells assessed as cell viability at 4 uM in presence of fer-1 (reference value: 30%); type: functional; conditions: read-out: Activity
[7] = molecular target: T1, Phospholipid hydroperoxide glutathione peroxidase GPX4 (Homo sapiens) (UniProt P36969); experiment: Induction of GPX4 degradation in human HT-1080 cells after 24 hrs by Western blotting assay; type: cell-based; conditions: dose 1-4 µM
T1 sequence (whole entry): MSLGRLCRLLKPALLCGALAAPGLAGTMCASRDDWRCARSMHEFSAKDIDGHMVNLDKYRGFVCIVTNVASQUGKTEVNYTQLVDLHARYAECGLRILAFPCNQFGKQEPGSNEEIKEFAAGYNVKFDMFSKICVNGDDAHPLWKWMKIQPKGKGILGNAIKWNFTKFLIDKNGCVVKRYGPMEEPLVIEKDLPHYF

[8] = molecular target: T1, Phospholipid hydroperoxide glutathione peroxidase GPX4 (Homo sapiens); experiment: Induction of GPX4 degradation in human HT-1080 cells at 2 to 4 uM after 24 hrs in presence of MG132 by Western blotting assay; type: cell-based; conditions: dose 2-4 µM
HT-1080 [9] = experiment: Induction of apoptosis in human HT-1080 cells assessed as decrease in Bcl-2 level after 24 hrs by Western blotting analysis; type: functional, cell-based; conditions: dose 0.5-4 µM
HT-1080 [10] = experiment: Induction of apoptosis in human HT-1080 cells assessed as viable cells at 1 uM incubated for 24 hrs by Annexin-V FITC/PI staining based flow cytometry analysis (reference value: 92.5%); type: functional; conditions: read-out: Activity
HT-1080 [11] = experiment: Induction of apoptosis in human HT-1080 cells assessed as late apoptotic cells at 1 uM incubated for 24 hrs by Annexin-V FITC/PI staining based flow cytometry analysis (reference value: 1.66%); type: functional
HT-1080 [12] = experiment: Induction of apoptosis in human HT-1080 cells assessed as necrotic cells at 1 uM incubated for 24 hrs by Annexin-V FITC/PI staining based flow cytometry analysis (reference value: 3.98%); type: functional
HT-1080 [13] = experiment: Induction of apoptosis in human HT-1080 cells assessed as viable cells at 2 uM incubated for 24 hrs by Annexin-V FITC/PI staining based flow cytometry analysis (reference value: 92.5%); type: functional; conditions: read-out: Activity
HT-1080 [14] = experiment: Induction of apoptosis in human HT-1080 cells assessed as early apoptotic cells at 2 uM incubated for 24 hrs by Annexin-V FITC/PI staining based flow cytometry analysis (reference value: 1.85%); type: functional
HT-1080 [15] = experiment: Induction of apoptosis in human HT-1080 cells assessed as necrotic cells at 2 uM incubated for 24 hrs by Annexin-V FITC/PI staining based flow cytometry analysis (reference value: 3.98%); type: functional
HT-1080 [16] = experiment: Induction of apoptosis in human HT-1080 cells assessed as viable cells at 4 uM incubated for 24 hrs by Annexin-V FITC/PI staining based flow cytometry analysis (reference value: 92.5%); type: functional; conditions: read-out: Activity
HT-1080 [17] = experiment: Induction of apoptosis in human HT-1080 cells assessed as early apoptotic cells at 4 uM incubated for 24 hrs by Annexin-V FITC/PI staining based flow cytometry analysis (reference value: 1.85%); type: functional
HT-1080 [18] = experiment: Induction of apoptosis in human HT-1080 cells assessed as late apoptotic cells at 4 uM incubated for 24 hrs by Annexin-V FITC/PI staining based flow cytometry analysis (reference value: 1.66%); type: functional
HT-1080 [19] = experiment: Induction of apoptosis in human HT-1080 cells assessed as necrotic cells at 4 uM incubated for 24 hrs by Annexin-V FITC/PI staining based flow cytometry analysis (reference value: 3.98%); type: functional
HT-1080 [20] = experiment: Antitumor activity against human HT-1080 cells xenografted in BALB/c nude mouse assessed as tumor growth inhibition at 40 mg/kg, ip administered once daily for 19 days and measured every 2 days; type: functional; conditions: HT-1080, 456 h, time 19 day, read-out: TGI
HT-1080 [21] = experiment: Antitumor activity against human HT-1080 cells xenografted in ip dosed BALB/c nude mouse assessed as reduction in GPX4 level administered once daily for 19 days and measured every 2 days by immunohistochemistry assay; type: functional, organism-based; conditions: dose 20-40 mg/kg, time 19.0 day
HT-1080 [22] = experiment: Antitumor activity against human HT-1080 cells xenografted in ip dosed BALB/c nude mouse assessed as reduction in Bcl-2 level administered once daily for 19 days and measured every 2 days by immunohistochemistry assay; type: functional, organism-based; conditions: dose 20-40 mg/kg, time 19.0 day
HT-1080 [23] = experiment: Antitumor activity against human HT-1080 cells xenografted in ip dosed BALB/c nude mouse assessed as increase in 4-HNE level administered once daily for 19 days and measured every 2 days by immunohistochemistry assay; type: functional, organism-based; conditions: dose 20-40 mg/kg, time 19.0 day
[24] = Toxicity in BALB/c nude mouse xenografted with human HT-1080 cells assessed as change in heart morphology at 20 to 40 mg/kg, ip administered once daily for 19 days and measured every 2 days by H and E staining based assay; type: organism-based; conditions: in vivo, 456 h, dose 20-40 mg/kg, time 19 day
[25] = Toxicity in BALB/c nude mouse xenografted with human HT-1080 cells assessed as change in liver morphology at 20 to 40 mg/kg, ip administered once daily for 19 days and measured every 2 days by H and E staining based assay; type: organism-based; conditions: in vivo, 456 h, dose 20-40 mg/kg, time 19 day
[26] = Toxicity in BALB/c nude mouse xenografted with human HT-1080 cells assessed as change in spleen morphology at 20 to 40 mg/kg, ip administered once daily for 19 days and measured every 2 days by H and E staining based assay; type: organism-based; conditions: in vivo, 456 h, dose 20-40 mg/kg, time 19 day
[27] = Toxicity in BALB/c nude mouse xenografted with human HT-1080 cells assessed as change in kidney morphology at 20 to 40 mg/kg, ip administered once daily for 19 days and measured every 2 days by H and E staining based assay; type: organism-based; conditions: in vivo, 456 h, dose 20-40 mg/kg, time 19 day
[28] = Toxicity in BALB/c nude mouse xenografted with human HT-1080 cells assessed as edema at 20 to 40 mg/kg, ip administered once daily for 19 days and measured every 2 days by H and E staining based assay; type: organism-based; conditions: in vivo, 456 h, dose 20-40 mg/kg, time 19 day
[29] = Toxicity in BALB/c nude mouse xenografted with human HT-1080 cells assessed as necrosis at 20 to 40 mg/kg, ip administered once daily for 19 days and measured every 2 days by H and E staining based assay; type: organism-based; conditions: in vivo, 456 h, dose 20-40 mg/kg, time 19 day
[30] = test system: AMG 510-resistant MIA PaCa-2; experiment: Cytotoxicity against human AAMG 510-resistant MIA PaCa-2 cells upto 5 uM; type: functional, cell-based
[31] = test system: AMG 510-resistant MIA PaCa-2; experiment: Cytotoxicity against human AAMG 510-resistant MIA PaCa-2 cells at 10 uM; type: functional, cell-based
[32] = Potentiation of AMG510 induced cytotoxicity in human AMG 510-resistant MIA PaCa-2 cells assessed as reduction in cell survival rate at 1 uM in presence of 10 nM AMG510 (reference value: 90%); type: functional

O=C(CCCCCNC1=CC(=O)c2ccccc2C1=O)Nc1ccc(N(C(=O)CCl)C(C(=O)NCCc2ccccc2)c2cccs2)cc1 (configuration not stated)
Activity (HT-1080 [1]): Active
IC50 [2]: 9.55 µM
Ratio IC50 [3]: 5.96
Activity (HT-1080 [4]): Active
Activity (HT-1080 [5]): Active
viability at 4 µM (HT-1080 [6]): 66%
Activity [7]: Dose-Dependent Effect
Activity [8]: inactive
Activity (HT-1080 [9]): Dose-Dependent Effect
viability at 1 µM (HT-1080 [10]): 90.7%
Activity (HT-1080 [11]): 3.11%
Activity (HT-1080 [12]): 2.32%
viability at 2 µM (HT-1080 [13]): 82.7%
Activity (HT-1080 [14]): 8.48%
Activity (HT-1080 [15]): 4.02%
viability at 4 µM (HT-1080 [16]): 79.9%
Activity (HT-1080 [17]): 9.04%
Activity (HT-1080 [18]): 7.99%
Activity (HT-1080 [19]): 3.03%
inhibition in vivo at 40 mg/kg (HT-1080 [20]): 63%
Activity (HT-1080 [21]): Dose-Dependent Effect
Activity (HT-1080 [22]): Dose-Dependent Effect
Activity (HT-1080 [23]): Dose-Dependent Effect
Activity [24]: Non-Toxic
Activity [25]: Non-Toxic
Activity [26]: Non-Toxic
Activity [27]: Non-Toxic
Activity [28]: Non-Toxic
Activity [29]: Non-Toxic
Activity [30]: inactive
Activity [31]: Active
Activity [32]: ~60%

Source: ChEMBL document CHEMBL5500352, “ML162 derivatives incorporating a naphthoquinone unit as ferroptosis/apoptosis inducers: Design, synthesis, anti-cancer activity, and drug-resistance reversal evaluation” (Eur J Med Chem, 2024)
